The data set can be described thus: recombinant UMI read abundance after kanamycin selection (control-corrected) (log10(CPM+1)); higher = more efficient recombination; extreme values may be limits of the assay; sequences stand for … in AGTGCAGAGAAAATCGGCCAGTTTTCTCTGCCTGCAGTCCGCATGCCGTGGGACCCCTTGGGTTCTAACCTGTTGCCTAGATTTATGCAGCGGACTGCCTTTCTCCCAAAGTGATAAACCGG…AGGTTGGTTTCACT; site = the 11-nt donor. The gist of the method: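 Values, expressed as log10(CPM+1), derive from recombinant UMI counts converted to CPM, averaged across replicates and scaled by control-derived factors. Plating was with IPTG (0.07 mM) plus kanamycin or unselected, two replicates each. The screen pooled donor and donor-binding-loop pairs for the IS621 bridge recombinase in Escherichia coli.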
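Further: IS621 bridge recombinase in Escherichia coli cells against a fixed T5 target plasmid.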

With “GGCAATCCATGGACCGGTTTTCCCGGTAATCCGTATTTGAA (site GGCAATCCTTC)”, the “recombinant UMI read abundance (log10)” value worked out at 0.00387. In the case of “GGCAATCCATGGACCGGTTTTCCCGGTAATCCGTATTTGAA (site GGCAATCCTTG)”, the “recombinant UMI read abundance (log10)” value turned out to be 0. With “GGCAATCCATGGACCGGTTTTCCCGGTAATCCGTATTTGAA (site GGCAATCCTTT)” the figure was 0.434; with “GGCAATCCATGGACCGGTTTTCCCGGTAATCCGTATTTGAA (site GGCAATGCTTT)”, 0.00508; with “GGCAATCCATGGACCGGTTTTCCCGGTAATCCGTATTTGAA (site GGCAATTCTTT)”, 0. On to “GGCAATCCATGGACCGGTTTTCCCGGTAATCCGTATTTGAA (site GGCACTCCTTT)”, for which the “recombinant UMI read abundance (log10)” value came to 0. Under “GGCAATCCATGGACCGGTTTTCCCGGTAATCCGTATTTGAA (site GGCAGTCCTTT)” stands 0.

With “GGCAATCCATGGACCGGTTTTCCCGGTAATCCGTATTTGAA (site GGCATTCCTTT)”, the “recombinant UMI read abundance (log10)” value turned out to be 0.0126.

As to “GGCAATCCATGGACCGGTTTTCCCGGTAATCCGTATTTGAA (site GGCCATCCTTT)”, the “recombinant UMI read abundance (log10)” value came to 0.0223. Under “GGCAATCCATGGACCGGTTTTCCCGGTAATCCGTATTTGAA (site GGCGATCCTTT)” stands 0; under “GGCAATCCATGGACCGGTTTTCCCGGTAATCCGTATTTGAA (site GGCTATCCTTT)”, 0.316. For the sequence “GGCAATCCATGGACCGGTTTTCCCGGTAATCCGTATTTGAA (site GGGAATCCTTT)”, the “recombinant UMI read abundance (log10)” value was found to be 0.0169. Turning to “GGCAATCCATGGACCGGTTTTCCCGGTAATCCGTATTTGAA (site GGTAATCCTTT)”, the “recombinant UMI read abundance (log10)” value is 0.00354.

As to “GGCAATCCATGGACCGGTTTTCCCGGTAATCCGTATTTGAA (site GTCAATCCTTT)”, the “recombinant UMI read abundance (log10)” value was found to be 0.236.

In the case of “GGCAATCCATGGACCGGTTTTCCCGGTAATCCGTATTTGAA (site TGCAATCCTTT)”, the “recombinant UMI read abundance (log10)” value worked out at 0.0119. “GGCACTCCATGGACCGGTTTTCCCGGTAATCCGTATTTGAA (site GGCAATCCTTT)”: the “recombinant UMI read abundance (log10)” value amounted to 0. In the case of “GGCACTCCATGGACCGGTTTTCCCGGTAATCCGTATTTGAA (site GGCACTCCTTT)”, the “recombinant UMI read abundance (log10)” value came to 0.248. “GGCACTCCATGGACCGGTTTTCCCGGTAATCCGTATTTGAA (site GGCAGTCCTTT)”: the “recombinant UMI read abundance (log10)” value was 0.00862. On to “GGCACTCCATGGACCGGTTTTCCCGGTAATCCGTATTTGAA (site GGCATTCCTTT)”, for which the “recombinant UMI read abundance (log10)” value stood at 0.00807. For “GGCAGGCCATGGACCGGTTTTCCCGGTAATCCGTATTTGCT (site GGCAGGCCTAG)”, the “recombinant UMI read abundance (log10)” value stood at 0.861. Consider “GGCATGACATGGACCGGTTTTCCCGGTAATCCGTATTTGCC (site GGCATGACTGG)”, for which the “recombinant UMI read abundance (log10)” value came to 0. On to “GGCCACACATGGACCGGTTTTCCCGGTAATCCGTATTTGTT (site GGCCACACTAA)”, for which the “recombinant UMI read abundance (log10)” value was found to be 0.485. As for “GGCCACACATGGACCGGTTTTCCCGGTAATCCGTATTTGTT (site GGCCACCCTAA)”, the “recombinant UMI read abundance (log10)” value worked out at 0.035. On to “GGCCACACATGGACCGGTTTTCCCGGTAATCCGTATTTGTT (site GGCCACGCTAA)”, for which the “recombinant UMI read abundance (log10)” value is 0.0159. As to “GGCCACACATGGACCGGTTTTCCCGGTAATCCGTATTTGTT (site GGCCACTCTAA)”, the “recombinant UMI read abundance (log10)” value turned out to be 0.00795. “GGCCACCCATGGACCGGTTTTCCCGGTAATCCGTATTTGAT (site GGCCACCCTAA)”: the “recombinant UMI read abundance (log10)” value was 0.0182.

Consider “GGCCACCCATGGACCGGTTTTCCCGGTAATCCGTATTTGAT (site GGCCACCCTAC)”, for which the “recombinant UMI read abundance (log10)” value turned out to be 0.00622. Under “GGCCACCCATGGACCGGTTTTCCCGGTAATCCGTATTTGAT (site GGCCACCCTAG)” stands 0; under “GGCCACCCATGGACCGGTTTTCCCGGTAATCCGTATTTGAT (site GGCCACCCTAT)”, 0. Turning to “GGCCAGCCATGGACCGGTTTTCCCGGTAATCCGTATTTGTA (site GGCCAGCCTTA)”, the “recombinant UMI read abundance (log10)” value amounted to 0.0264. Consider “GGCCGATCATGGACCGGTTTTCCCGGTAATCCGTATTTGCG (site GGCCGATCTCG)”, for which the “recombinant UMI read abundance (log10)” value was determined as 1.88. In the case of “GGCCGATCATGGACCGGTTTTCCCGGTAATCCGTATTTGTC (site GGCCGATCTGA)”, the “recombinant UMI read abundance (log10)” value was found to be 0.695.

For “GGCCGTGCATGGACCGGTTTTCCCGGTAATCCGTATTTGCC (site GGCCGTGCTGG)”, the “recombinant UMI read abundance (log10)” value was determined as 1.16. As for “GGCCTCCCATGGACCGGTTTTCCCGGTAATCCGTATTTGTT (site GGCCACCCTAA)”, the “recombinant UMI read abundance (log10)” value was 0.0137. With “GGCCTCCCATGGACCGGTTTTCCCGGTAATCCGTATTTGTT (site GGCCCCCCTAA)”, the “recombinant UMI read abundance (log10)” value was 0. Turning to “GGCCTCCCATGGACCGGTTTTCCCGGTAATCCGTATTTGTT (site GGCCGCCCTAA)”, the “recombinant UMI read abundance (log10)” value turned out to be 0.0206.

As to “GGCCTCCCATGGACCGGTTTTCCCGGTAATCCGTATTTGTT (site GGCCTCCCTAA)”, the “recombinant UMI read abundance (log10)” value turned out to be 0.00625.

Consider “GGCGAACCATGGACCGGTTTTCCCGGTAATCCGTATTTGAC (site GGCGAACCTGT)”, for which the “recombinant UMI read abundance (log10)” value came out at 0. On to “GGCGAACCATGGACCGGTTTTCCCGGTAATCCGTATTTGGG (site GGCGAACCTCC)”, for which the “recombinant UMI read abundance (log10)” value is 0. Regarding “GGCGACCCATGGACCGGTTTTCCCGGTAATCCGTATTTGTT (site GGCAACCCTAA)”, the “recombinant UMI read abundance (log10)” value came out at 0. “GGCGACCCATGGACCGGTTTTCCCGGTAATCCGTATTTGTT (site GGCCACCCTAA)”: the “recombinant UMI read abundance (log10)” value came out at 0.0153. On to “GGCGACCCATGGACCGGTTTTCCCGGTAATCCGTATTTGTT (site GGCGACCCTAA)”, for which the “recombinant UMI read abundance (log10)” value was 0.263. As to “GGCGACCCATGGACCGGTTTTCCCGGTAATCCGTATTTGTT (site GGCTACCCTAA)”, the “recombinant UMI read abundance (log10)” value was determined as 0.0186. Take “GGCGAGGCATGGACCGGTTTTCCCGGTAATCCGTATTTGTC (site GGCGAGGCTGA)”: the “recombinant UMI read abundance (log10)” value was 2.23. As for “GGCGATACATGGACCGGTTTTCCCGGTAATCCGTATTTGTT (site GGCGATACTAA)”, the “recombinant UMI read abundance (log10)” value was determined as 1.81. With “GGCGCACCATGGACCGGTTTTCCCGGTAATCCGTATTTGCA (site GGAGCACCTTG)” the figure was 0.

With “GGCGCACCATGGACCGGTTTTCCCGGTAATCCGTATTTGCA (site GGCGCACCTTG)”, the “recombinant UMI read abundance (log10)” value was found to be 0.

In the case of “GGCGCACCATGGACCGGTTTTCCCGGTAATCCGTATTTGCA (site GGGGCACCTTG)”, the “recombinant UMI read abundance (log10)” value is 0. For the sequence “GGCGCACCATGGACCGGTTTTCCCGGTAATCCGTATTTGCA (site GGTGCACCTTG)”, the “recombinant UMI read abundance (log10)” value turned out to be 0.00254. Under “GGCGCAGCATGGACCGGTTTTCCCGGTAATCCGTATTTGTT (site GGCGCAGCTAA)” stands 0.794. Regarding “GGCTAATCATGGACCGGTTTTCCCGGTAATCCGTATTTGAT (site GGCTAATCTAT)”, the “recombinant UMI read abundance (log10)” value worked out at 0.935. Under “GGCTACTCATGGACCGGTTTTCCCGGTAATCCGTATTTGCT (site GGCTACTCTAG)” stands 2.43; under “GGCTCTACATGGACCGGTTTTCCCGGTAATCCGTATTTGGT (site GGCTCTACTAC)”, 0; under “GGCTTGGCATGGACCGGTTTTCCCGGTAATCCGTATTTGGT (site GGCTTGGCTAC)”, 0.216. With “GGGAATACATGGACCGGTTTTCCCGGTAATCCGTATTTGCA (site AGGAAGACTTG)” the figure was 0; with “GGGAATACATGGACCGGTTTTCCCGGTAATCCGTATTTGCA (site GGGAATACTTG)”, 1.37. With “GGGAATACATGGACCGGTTTTCCCGGTAATCCGTATTTGTT (site CGGAATCCTAA)”, the “recombinant UMI read abundance (log10)” value came out at 0. For the sequence “GGGAATACATGGACCGGTTTTCCCGGTAATCCGTATTTGTT (site GGGAATACTAA)”, the “recombinant UMI read abundance (log10)” value amounted to 1.29. For the sequence “GGGAATCCATGGACCGGTTTTCCCGGTAATCCGTATTTGAA (site GGAAATCCTTT)”, the “recombinant UMI read abundance (log10)” value stood at 0.0039.

Regarding “GGGAATCCATGGACCGGTTTTCCCGGTAATCCGTATTTGAA (site GGCAATCCTTT)”, the “recombinant UMI read abundance (log10)” value turned out to be 0.00362. With “GGGAATCCATGGACCGGTTTTCCCGGTAATCCGTATTTGAA (site GGGAATCCTTT)” the figure was 0.808; with “GGGAATCCATGGACCGGTTTTCCCGGTAATCCGTATTTGAA (site GGTAATCCTTT)”, 0.0108; with “GGGACATCATGGACCGGTTTTCCCGGTAATCCGTATTTGCT (site AGGACATCTAG)”, 0.

For “GGGACATCATGGACCGGTTTTCCCGGTAATCCGTATTTGCT (site CGGACATCTAG)”, the “recombinant UMI read abundance (log10)” value was found to be 0. As to “GGGACATCATGGACCGGTTTTCCCGGTAATCCGTATTTGCT (site GGGACATCTAG)”, the “recombinant UMI read abundance (log10)” value is 1.43. For the sequence “GGGACATCATGGACCGGTTTTCCCGGTAATCCGTATTTGCT (site TGGACATCTAG)”, the “recombinant UMI read abundance (log10)” value worked out at 0. Turning to “GGGACTACATGGACCGGTTTTCCCGGTAATCCGTATTTGCA (site GGGACTACTTG)”, the “recombinant UMI read abundance (log10)” value came out at 1.67. With “GGGACTTCATGGACCGGTTTTCCCGGTAATCCGTATTTGTG (site GGGACTTCTCA)”, the “recombinant UMI read abundance (log10)” value was found to be 0.746.

Source of the values: the supplement of paper PMC11208160.
